This note sets out measurements from ChEMBL document CHEMBL4425142, “Inhibitors of diacylglycerol lipases in neurodegenerative and metabolic disorders” (Bioorg Med Chem Lett, 2016).

The term IC50 denotes the concentration needed to halve the response being measured. As usually defined, the Ki is a measure of affinity in units of concentration, obtained from inhibition or displacement.

In assay [1] the target is T1, Diacylglycerol lipase-alpha (Homo sapiens, UniProt Q9Y4D2).
T1 sequence (Q9Y4D2 whole entry): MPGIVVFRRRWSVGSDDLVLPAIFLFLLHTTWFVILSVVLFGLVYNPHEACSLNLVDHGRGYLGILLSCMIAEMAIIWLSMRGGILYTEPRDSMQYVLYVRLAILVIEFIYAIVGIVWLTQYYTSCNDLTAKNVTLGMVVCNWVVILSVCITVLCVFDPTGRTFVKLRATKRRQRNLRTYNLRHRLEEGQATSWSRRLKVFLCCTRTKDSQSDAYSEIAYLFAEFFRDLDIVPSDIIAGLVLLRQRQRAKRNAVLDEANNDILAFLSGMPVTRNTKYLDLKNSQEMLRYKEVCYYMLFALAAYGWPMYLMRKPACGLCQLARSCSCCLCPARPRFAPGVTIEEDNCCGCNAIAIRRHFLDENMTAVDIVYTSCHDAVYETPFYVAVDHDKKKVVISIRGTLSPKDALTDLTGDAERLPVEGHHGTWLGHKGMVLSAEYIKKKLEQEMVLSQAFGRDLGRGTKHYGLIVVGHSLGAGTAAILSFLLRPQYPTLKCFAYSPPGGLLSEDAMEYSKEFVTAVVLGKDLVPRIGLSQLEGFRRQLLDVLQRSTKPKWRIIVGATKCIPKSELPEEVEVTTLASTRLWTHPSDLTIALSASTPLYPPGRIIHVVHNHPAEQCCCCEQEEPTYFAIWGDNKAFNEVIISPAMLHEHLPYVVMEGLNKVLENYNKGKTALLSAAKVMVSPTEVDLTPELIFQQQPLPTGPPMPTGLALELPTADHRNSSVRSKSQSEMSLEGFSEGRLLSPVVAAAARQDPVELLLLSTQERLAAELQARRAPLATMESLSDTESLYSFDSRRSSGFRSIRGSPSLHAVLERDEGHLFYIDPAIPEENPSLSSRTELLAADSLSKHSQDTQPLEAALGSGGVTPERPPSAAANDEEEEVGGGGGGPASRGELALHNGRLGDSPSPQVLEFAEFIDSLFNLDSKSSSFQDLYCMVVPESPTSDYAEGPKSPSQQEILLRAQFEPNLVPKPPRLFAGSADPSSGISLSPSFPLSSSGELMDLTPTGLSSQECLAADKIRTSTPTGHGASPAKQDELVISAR
Nature of the assay: Inhibition of human GST-tagged DAGLalpha expressed in HEK293F cell membranes using 1-stearoyl-2-arachidonoyl-sn-glycerol as substrate preincubated for 20 mins followed by substrate addition by enzyme coupled natural substrate assay.

The target in assay [2] is T2, Diacylglycerol lipase-beta (Mus musculus, UniProt Q91WC9).
T2 sequence (Q91WC9 whole entry): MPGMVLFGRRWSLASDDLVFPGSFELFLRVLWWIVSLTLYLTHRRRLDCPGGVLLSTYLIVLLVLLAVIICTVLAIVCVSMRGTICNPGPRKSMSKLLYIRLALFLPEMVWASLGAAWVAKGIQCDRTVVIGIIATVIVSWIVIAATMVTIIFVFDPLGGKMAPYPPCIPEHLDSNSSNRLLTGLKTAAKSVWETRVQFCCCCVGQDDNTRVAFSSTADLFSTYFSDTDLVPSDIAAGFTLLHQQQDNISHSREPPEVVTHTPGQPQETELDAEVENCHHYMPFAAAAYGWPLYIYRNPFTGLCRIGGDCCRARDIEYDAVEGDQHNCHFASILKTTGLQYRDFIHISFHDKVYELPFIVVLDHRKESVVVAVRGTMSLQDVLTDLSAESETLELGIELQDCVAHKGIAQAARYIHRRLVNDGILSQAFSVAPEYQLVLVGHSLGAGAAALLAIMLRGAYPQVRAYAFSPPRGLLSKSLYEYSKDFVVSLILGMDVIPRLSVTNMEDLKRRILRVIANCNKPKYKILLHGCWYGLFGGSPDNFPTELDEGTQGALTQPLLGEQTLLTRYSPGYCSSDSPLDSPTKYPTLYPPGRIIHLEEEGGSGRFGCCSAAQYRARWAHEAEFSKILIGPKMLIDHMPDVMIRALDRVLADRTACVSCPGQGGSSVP
Nature of the assay: Inhibition mouse DAGLbeta expressed in HEK293T cell membrane fractions using DAG as substrate preincubated for 30 mins followed by ABP HT01 probe addition measured after 30 mins in presence of probe by gel-based ABPP competition assay.

For assay [3], the target named is T1, Diacylglycerol lipase-alpha. Nature of the assay: Inhibition human DAGLalpha expressed in HEK293T cell membrane fractions using DAG as substrate preincubated for 30 mins followed by ABP HT01 probe addition measured after 30 mins in presence of probe by gel-based ABPP competition assay.
Assay [4] concerns the target T2, Diacylglycerol lipase-beta. Nature of the assay: Inhibition of V-tagged mouse DAGLbeta expressed in […] cell membrane fractions using SAG as substrate assessed as accumulation of 2-AG preincubated for 30 mins followed by substrate addition measured after 30 mins by LC-MS natural substrate assay.
For assay [5], the target named is T3, Diacylglycerol lipase-alpha (Mus musculus, UniProt Q6WQJ1).
T3 sequence (Q6WQJ1 whole entry): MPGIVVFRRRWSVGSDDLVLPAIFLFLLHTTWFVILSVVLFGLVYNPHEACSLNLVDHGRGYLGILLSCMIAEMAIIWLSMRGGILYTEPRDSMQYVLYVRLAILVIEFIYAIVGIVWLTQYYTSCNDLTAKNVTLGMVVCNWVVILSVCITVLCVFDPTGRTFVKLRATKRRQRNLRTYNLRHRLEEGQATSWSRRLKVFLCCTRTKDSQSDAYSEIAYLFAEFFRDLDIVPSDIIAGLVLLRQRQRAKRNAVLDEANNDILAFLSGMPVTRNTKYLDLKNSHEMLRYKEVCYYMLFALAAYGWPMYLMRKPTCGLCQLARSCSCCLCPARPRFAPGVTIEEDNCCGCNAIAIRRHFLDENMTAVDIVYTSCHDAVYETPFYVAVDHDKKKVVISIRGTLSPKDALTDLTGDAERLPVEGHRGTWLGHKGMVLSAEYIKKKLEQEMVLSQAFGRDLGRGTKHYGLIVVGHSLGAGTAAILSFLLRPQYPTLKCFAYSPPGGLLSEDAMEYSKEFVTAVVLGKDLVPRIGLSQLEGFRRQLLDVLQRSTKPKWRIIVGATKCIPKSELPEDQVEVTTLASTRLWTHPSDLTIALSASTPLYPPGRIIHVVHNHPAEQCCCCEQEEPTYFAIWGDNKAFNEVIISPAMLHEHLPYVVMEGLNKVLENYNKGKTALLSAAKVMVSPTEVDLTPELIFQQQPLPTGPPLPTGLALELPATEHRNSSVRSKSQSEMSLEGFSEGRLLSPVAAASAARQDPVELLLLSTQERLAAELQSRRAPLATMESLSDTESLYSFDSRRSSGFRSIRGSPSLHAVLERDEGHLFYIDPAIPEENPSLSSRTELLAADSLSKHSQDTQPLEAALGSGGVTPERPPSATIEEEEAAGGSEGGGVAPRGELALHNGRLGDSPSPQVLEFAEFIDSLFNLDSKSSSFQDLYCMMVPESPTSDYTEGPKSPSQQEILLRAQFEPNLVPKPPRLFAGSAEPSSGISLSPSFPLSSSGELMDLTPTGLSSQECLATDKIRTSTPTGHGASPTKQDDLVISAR
As to the kind of experiment: Inhibition of DAGLalpha in mouse brain proteome pre-incubated for 30 mins followed by ABP MB064 probe addition for 15 mins by ABPP assay. In kind it is subcellular.

The target of assay [6] is T1, Diacylglycerol lipase-alpha. Nature of the assay: Inhibition of human C-terminal HA-tagged DAGLalpha expressed in HEK293F cell membrane fractions using PNP butyrate as substrate by colorimetric surrogate substrate assay.
The target is the same in assay [7]. Nature of the assay: Inhibition of human C-terminal HA-tagged DAGLalpha expressed in HEK293F cell membrane fractions using DiFMU-octanoate as substrate by fluorogenic surrogate substrate assay.
The target of assay [8] is T2, Diacylglycerol lipase-beta. Nature of the assay: Inhibition of full length 3' FLAG-tagged mouse DAGLbeta expressed in African green monkey COS7 cells using sn-1-stearoyl-[14C]-arachidonoyl-glycerol as substrate preincubated for 15 mins followed by substrate addition measured after 30 mins by radiometric natural substrate assay. In kind it is cell-based.
The target of assay [9] is T4, Diacylglycerol lipase-beta (Homo sapiens, UniProt Q8NCG7).
T4 sequence (Q8NCG7 whole entry): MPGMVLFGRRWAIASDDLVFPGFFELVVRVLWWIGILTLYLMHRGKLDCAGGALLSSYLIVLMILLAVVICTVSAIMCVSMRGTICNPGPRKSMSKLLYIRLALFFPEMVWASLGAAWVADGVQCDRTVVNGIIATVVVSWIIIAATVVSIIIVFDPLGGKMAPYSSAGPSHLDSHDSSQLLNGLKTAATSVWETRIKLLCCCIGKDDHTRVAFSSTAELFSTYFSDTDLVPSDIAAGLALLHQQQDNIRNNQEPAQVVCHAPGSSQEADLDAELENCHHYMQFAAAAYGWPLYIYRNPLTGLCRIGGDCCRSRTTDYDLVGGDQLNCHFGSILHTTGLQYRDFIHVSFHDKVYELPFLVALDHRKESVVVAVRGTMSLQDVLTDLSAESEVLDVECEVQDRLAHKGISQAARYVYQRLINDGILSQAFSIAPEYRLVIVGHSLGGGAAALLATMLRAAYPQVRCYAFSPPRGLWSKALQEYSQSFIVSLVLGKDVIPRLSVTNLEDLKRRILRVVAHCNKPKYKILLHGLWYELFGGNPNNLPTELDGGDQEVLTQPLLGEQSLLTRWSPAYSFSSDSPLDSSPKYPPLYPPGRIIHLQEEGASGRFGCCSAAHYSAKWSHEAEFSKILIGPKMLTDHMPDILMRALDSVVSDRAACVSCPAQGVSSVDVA
As to the kind of experiment: Inhibition of human GST-tagged DAGLbeta catalytic domain expressed in HEK293F cell membranes using EnzChek as substrate preincubated for 5 mins followed by substrate addition by fluorogenic surrogate substrate assay.

A further assay concerns the target Cannabinoid receptor 1 (Homo sapiens, UniProt P21554). As to the kind of experiment: Antagonist activity at CBR1 (unknown origin).
The target in assay [10] is T2, Diacylglycerol lipase-beta. As to the kind of experiment: Inhibition of mouse DAGLbeta expressed in HEK293T cell membranes using SAG as substrate preincubated for 20 mins followed by substrate addition by enzyme coupled natural substrate assay.
Assay [11] concerns the target T1, Diacylglycerol lipase-alpha. Nature of the assay: Inhibition of human DAGLalpha expressed in HEK293T cell membrane fractions using PNP butyrate as substrate preincubated for 20 mins followed by substrate addition by colorimetric surrogate substrate assay.

Cannabinoid receptor 1, sequence (P21554 whole entry): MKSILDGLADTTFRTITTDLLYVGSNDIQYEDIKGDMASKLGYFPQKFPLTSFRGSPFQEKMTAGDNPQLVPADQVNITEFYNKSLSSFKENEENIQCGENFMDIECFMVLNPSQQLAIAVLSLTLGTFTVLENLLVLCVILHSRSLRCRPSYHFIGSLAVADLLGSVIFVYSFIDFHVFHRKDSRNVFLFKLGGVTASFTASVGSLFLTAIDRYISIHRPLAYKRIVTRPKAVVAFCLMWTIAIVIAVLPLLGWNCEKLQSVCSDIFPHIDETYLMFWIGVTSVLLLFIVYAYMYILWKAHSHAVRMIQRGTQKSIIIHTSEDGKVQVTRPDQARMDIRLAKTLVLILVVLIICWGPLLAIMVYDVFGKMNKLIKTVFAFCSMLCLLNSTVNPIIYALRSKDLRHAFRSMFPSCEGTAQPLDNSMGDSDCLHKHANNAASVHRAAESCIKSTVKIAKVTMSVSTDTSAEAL

In the case of `O=C(N1CCCCC1Cc1ccccc1)n1cc(-c2ccc(-c3ccccc3)cc2)nn1` (stereo not drawn), the IC50 in [1] was 25.1 nM; in assay [2], 39.8 nM; in assay [3] it was 2510 nM; in [4], 79.4 nM.

For the molecule `CC1(C)CCc2cc(S(=O)(=O)N(CC(=O)O)Cc3ccc(Oc4ccccc4)cc3)ccc2O1`, the IC50 in assay [1] is 1000 nM; in [5], 126 nM.

On to `O=C(CCCCCc1ccccc1)c1nc2ncccc2o1`, for which, in assay [5], the IC50 is 501 nM.

Take `O=C(NCCCCCCNC(=O)ON=C1CCCCC1)ON=C1CCCCC1`: the figures for the IC50 in [6] and in assay [7] were 5010 nM and 25100 nM, respectively.

As for `COc1ccccc1-c1ccc(-c2cn(C(=O)N3CCCCC3Cc3ccccc3)nn2)cc1` (stereo not drawn), the IC50 is 63.1 nM in assay [2], 126 nM in assay [3] and 79.4 nM in assay [4].

In the case of `C#CCO[C@@H]1CC[C@H](Cc2ccccc2)N(C(=O)n2ncc(C(O)(c3ccc(F)cc3)c3ccc(F)cc3)n2)C1`, the values for the IC50 in assay [2] and in assay [3] were 5.01 nM and 1.26 nM, respectively.

For the molecule `CCCCCCCCCCCC(C[C@@H]1OC(=O)[C@H]1CCCCCC)OC(=O)[C@H](CC(C)C)NC=O` (stereo partly drawn), the figures for the IC50 in [8] and in assay [2] were 100 nM and 2000 nM, respectively.

In the case of `CCCCCCCCCCCC(C[C@@H]1OC(=O)[C@H]1CCCCCC)OC(=O)[C@@H](NC=O)C(C)CC` (stereo partly drawn), in assay [9], inhibition was half-maximal at 6.31 nM (IC50). Besides, affinity on Cannabinoid receptor 1 was put at a Ki of 6000 nM.

Take `CC(C)(C)OC(=O)N1CCN(C(=O)n2cc(-c3ccc(OC(F)(F)F)cc3)nn2)C(Cc2ccccc2)C1` (stereo not drawn): the IC50 is 2.51 nM in [2], 0.501 nM in assay [3] and 7.94 nM in assay [10].

Regarding `Cc1ccc(-c2cnc3nc(C(=O)CCCCCc4ccccc4)oc3c2)cc1`, the IC50 is 3.16 nM in assay [11] and 25.1 nM in assay [5].
